The values below come from patent US8901167B2, “Product and process for inhibition of biofilm development” (National Jewish Health, priority 2004, dated 2014).

Values after ≈ are worked out from the molar mass of the structure shown. Bounds are passed on as bounds.

In data set [1] the test system is P. aeruginosa strain PA01. Kind of data set: Antibiotic susceptibility of planktonic population (MIC), NCCLS assay. In kind it is cell-based. As to conditions: Pseudomonas aeruginosa. Here is the method: (§1) As human neutrophils enhance biofilm development, the inventors questioned if biofilms formed in the presence of neutrophils had altered patterns of antibiotic resistance. Biofilms and planktonic P. aeruginosa grown in the presence or absence of neutrophils for 24 hours were tested for susceptibility to four clinically relevant classes of antibiotics. […] No significant changes in antibiotic susceptibilities was detected in planktonic P. aeruginosa in the presence of neutrophils. This selective modification of antibiotic resistance supports the conclusion that neutrophils mediate phenotypic changes in addition to greater biofilm thickness.

In data set [2] the test system is P. aeruginosa strain PA01 biofilm. Kind of data set: Antibiotic susceptibility of biofilm population (MBEC), NCCLS assay. As to conditions: for Susceptibility of biofilms grown in the presence of neutrophils versus absence: biofilms grown 24 hours. The class given is cell-based. Here is the method:
as §1

In data set [3] the test system is P. aeruginosa PA01 biofilm. In kind it is cell-based. The following applies: for Effect on neutrophil-induced enhancement of biofilm formation: CV staining, DNase I 90 Kunitz units/ml, gelsolin 200 nM, FIG. 3C. How it is done: A static biofilm assay was used with polypropylene tubes (9). PA01 was grown overnight under constant rotation to late stationary phase at 37° C. in LB. All biofilm studies were initiated with neutrophils (1×10^7 cells/ml) and PA01 (1×10^6 CFU/ml) in suspension, and cultures were incubated under stationary conditions at 37° C. P. aeruginosa adherent to the tube was considered to be a biofilm, while bacteria not adherent to the surface of the tube was considered to be “planktonic”. Viable P. aeruginosa biofilm and planktonic cells were quantified by sonicating the adherent bacteria in LB, followed by serial dilution and plating to determine CFUs on Pseudomonas Isolation Agar (Difco, Sparks, Md.). P. aeruginosa biofilm density was quantified by crystal violet (CV) staining (9). The contribution of background staining of neutrophil components, tubes and reagents were subtracted from depicted values. Neutrophils were lysed with 0.1% Tween 20 (BioRad, Hercules, Calif.) for 30 min. Neutrophil lysates relatively depleted of F-actin were prepared by precipitating the F-actin using the F-actin/G-actin In Vivo Biochem Kit (Cytoskeleton, Denver, Colo.). The total protein present in the whole cell lysate and the F-actin depleted lysate was determined by the Bradford Protein Assay (BioRad, Hercules, Calif.). Biofilm exopolysaccharide was determined by total carbohydrate assays as previously described (15).
Genomic DNA was isolated from neutrophils and P. aeruginosa using the DNeasy Tissue Kit (Qiagen, Valencia, Calif.) according to the manufacturer's protocol. Actin and DNA polymerization was performed as described previously (38). Effects of filament cleavage was tested by initially treating the samples with 90 Kunitz units/ml of DNase I (43) and/or 200 nM gelsolin (Sigma) (42). Granule proteins were isolated from homogenized human neutrophils by differential centrifugation in a discontinuous Percoll/sucrose gradient (34). Heavy and light granules were immediately suspended in RPMI media and added to P. aeruginosa.

The next data set relates to actin-DNA filaments. The data set is described as follows: Fluorescence microscopy of actin-DNA filaments in neutrophil lysates and CF sputum. The arrangement: species or system human. As to conditions: data not shown. Here is the method: Samples of sputa from CF patients chronically infected with P. aeruginosa were frozen in liquid nitrogen and stored at −20° C. At the time of analysis, sputa were thawed and resuspended carefully in PBS (1:4 vol/vol ratio) containing 10^7 CFU/ml of P. aeruginosa labeled with the intracellular fluorescent conjugate (CFDA SE) as described in the actin-binding protocol. Samples were incubated for 4 hours at 37° C., then dried on Superfrost/Plus microscope slides (Fisher Scientific) and stained for 15 min with 10 μl of 0.6 μM Alexa Fluor 546 Phalloidin (Molecular Probes), 10 μl of 0.2 μM DAPI, dilactate (Molecular Probes), to visualize F-actin and DNA. Visualization of actin (546/576 nm), DNA (358/461 nm), and P. aeruginosa (492/517 nm) were performed sequentially on the same field, followed by an “overlay” view at all 3 wavelengths. Neutrophil lysates were also combined with P. aeruginosa labeled with CFDA SE for 4 hrs at 37° C., and staining of F-actin and DNA was conducted as described for CF sputa.

Data set [4] has as its system P. aeruginosa biofilm. The following applies: literature refs 39, 43; cited from earlier work.
Data set [5] deals with P. aeruginosa biofilm. The data set is described as follows: NUNC-TSP biofilm growth of P. aeruginosa suspended in mucin. The class given is cell-based. From the text:
When P. aeruginosa was suspended in mucin rather then RPMI media, a similar effect was observed on NUNC-TSP biofilm growth. […] These aggregates of P. aeruginosa may represent the predominant structure of biofilms that are present in the CF airway, and the combination of neutrophils with mucin appears to enhance their formation.

Where [6] appears, read: PA01 + PMN, planktonic, grown with neutrophils 24 hours.
[7] abbreviates: PA01 planktonic, without neutrophils.
[8] abbreviates: PA01 + PMN, biofilm grown with neutrophils 24 hours.
The mark [9] stands for this setting: PA01 biofilm, without neutrophils.

Regarding `CC(C)(O/N=C(\C(=O)N[C@@H]1C(=O)N2C(C(=O)[O-])=C(C[n+]3ccccc3)CS[C@H]12)c1csc(N)n1)C(=O)O` [Ceftazidime], the figures for the minimal inhibitory concentration (MIC) in data set [1] (setting [6]) and in data set [1] (setting [7]) were 2 µg/mL and 2 µg/mL (≈ 3.66 µM), respectively. The MBEC in data set [2] (setting [8]) and in data set [2] (setting [9]) was greater than 1024 µg/mL throughout. The “Susceptibility of biofilms grown in the presence of neutrophils versus absence” value (from here on “Susceptibility … of neutrophils versus absence”) in data set [2] is given as “unchanged”.
As to DNase, in data set [3], the “Effect on bacterial growth or neutrophil survival” value was “without significantly inhibiting bacterial growth or neutrophil survival” and the “Effect on neutrophil-induced enhancement of biofilm formation” value was “abolished much of the neutrophil-induced enhancement of biofilm formation”. In the data set on actin-DNA filaments, the “Disruption of actin-DNA filaments” value was “near complete disruption of the actin-DNA filaments”. Besides, the “Effect on P. aeruginosa biofilm formation” value in the data set with P. aeruginosa biofilm [4] is reported as “strongly inhibited biofilm formation”.
As to `NC[C@H]1O[C@H](O[C@H]2[C@H](O)[C@@H](O[C@H]3O[C@H](CO)[C@@H](O)[C@H](N)[C@H]3O)[C@H](N)C[C@@H]2N)[C@H](N)C[C@@H]1O` [Tobramycin], the MIC in data set [1] (setting [6]) is 0.5 µg/mL; in data set [1] (setting [7]) it was 1 µg/mL (≈ 2.14 µM). The figures for the MBEC in data set [2] (setting [8]) and in data set [2] (setting [9]) were 256 µg/mL and greater than 1024 µg/mL, respectively. Besides, the “Susceptibility … of neutrophils versus absence” value in data set [2] is “significantly greater susceptibility”.
The corresponding values for `CC[C@H]1OC(=O)[C@H](C)[C@@H](O[C@H]2C[C@@](C)(OC)[C@@H](O)[C@H](C)O2)[C@H](C)[C@@H](O[C@@H]2O[C@H](C)C[C@H](N(C)C)[C@H]2O)[C@](C)(O)C[C@@H](C)CN(C)[C@H](C)[C@@H](O)[C@]1(C)O` [Azithromycin] are 32 µg/mL, 64 µg/mL (≈ 85.4 µM), 1024 µg/mL, greater than 1024 µg/mL and “unchanged”.
For the compound mucin, the “Effect on biofilm growth” value in the data set with P. aeruginosa biofilm [5] (absence of neutrophils) is reported as “increased biofilm growth”; in the data set with P. aeruginosa biofilm [5] (presence of neutrophils), “no change”.
Take gelsolin: in data set [3], the “Effect on neutrophil-induced enhancement of biofilm formation” value was “significantly reduced the neutrophil-induced enhancement of the biofilm”.
For the compound `O=C(O)c1cn(C2CC2)c2cc(N3CCNCC3)c(F)cc2c1=O` [Ciprofloxacin], the figures for the MIC in data set [1] (setting [6]) and in data set [1] (setting [7]) were 2 µg/mL and 0.5 µg/mL (≈ 1.51 µM), respectively. For the same compound, the MBEC in data set [2] (setting [8]) came out at 128 µg/mL; in data set [2] (setting [9]), 512 µg/mL. The “Susceptibility … of neutrophils versus absence” value in data set [2] was “significantly greater susceptibility”.
